According to US9034336B2, “Immunomodulators and immunomodulator conjugates” (Regents of the University of Minnesota, priority 2011, dated 2015):
“Also recorded” adds a separate entry of the source.

Assays:
human TLR7 = molecular target: T1, human TLR7 (Homo sapiens, UniProt Q9NYK1); experiment: TLR7/8-NF-κB reporter assay (HEK-TLR7, SEAP); type: cell-based; conditions: HEK-TLR7 cells, 24 hrs, read-out: EC50 of TLR7 (mean ± SD)
T1 construct: host or cells: HEK (HEK293) cells with NF-kB-responsive SEAP reporter
T1 sequence (Q9NYK1 27-1049): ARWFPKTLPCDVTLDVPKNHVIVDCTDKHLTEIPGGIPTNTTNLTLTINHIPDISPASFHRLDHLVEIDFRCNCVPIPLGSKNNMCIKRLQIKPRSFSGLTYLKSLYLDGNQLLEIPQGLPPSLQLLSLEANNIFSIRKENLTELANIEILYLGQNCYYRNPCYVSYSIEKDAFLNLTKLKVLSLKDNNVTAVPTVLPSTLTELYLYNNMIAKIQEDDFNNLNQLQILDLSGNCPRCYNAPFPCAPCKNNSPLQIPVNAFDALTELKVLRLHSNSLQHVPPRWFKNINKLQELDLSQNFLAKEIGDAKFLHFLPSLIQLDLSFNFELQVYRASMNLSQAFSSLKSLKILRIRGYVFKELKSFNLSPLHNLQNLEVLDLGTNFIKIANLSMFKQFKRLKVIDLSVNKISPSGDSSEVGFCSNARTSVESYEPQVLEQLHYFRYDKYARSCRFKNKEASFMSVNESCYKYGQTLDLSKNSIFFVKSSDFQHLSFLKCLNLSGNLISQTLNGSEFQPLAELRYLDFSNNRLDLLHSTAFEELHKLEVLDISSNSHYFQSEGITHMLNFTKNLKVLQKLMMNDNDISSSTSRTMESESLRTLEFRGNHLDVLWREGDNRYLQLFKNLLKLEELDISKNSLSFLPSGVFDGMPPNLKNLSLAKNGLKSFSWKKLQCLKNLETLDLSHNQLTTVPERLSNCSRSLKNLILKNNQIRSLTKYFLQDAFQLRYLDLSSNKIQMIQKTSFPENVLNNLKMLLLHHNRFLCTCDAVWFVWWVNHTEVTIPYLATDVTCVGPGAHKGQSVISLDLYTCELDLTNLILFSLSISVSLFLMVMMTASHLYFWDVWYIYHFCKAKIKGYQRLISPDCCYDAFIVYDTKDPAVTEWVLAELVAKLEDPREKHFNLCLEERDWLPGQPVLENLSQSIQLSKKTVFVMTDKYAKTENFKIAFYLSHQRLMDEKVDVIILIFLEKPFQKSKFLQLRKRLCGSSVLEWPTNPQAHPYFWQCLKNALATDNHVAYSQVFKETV
Description: Human embryonic kidney (HEK) cells that were stably transfected with human TLR7 or TLR8 and an NF-κB—responsive secreted embryonic alkaline phosphatase (SEAP) gene (HEK-TLR7/8) were purchased from InvivoGen (San Diego, Calif.). The procedure used to measure TLR7 or TLR8 agonist activity was conducted as described by Hood et al. (Hood J. D, et al., Human Vaccines, 2010, 6, 4, 322-335). Briefly, HEK-TLR7/8 cells were stimulated with 3.3 or 30 μM of compound in a 96-well plate in DMEM containing 10% FBS and 0.01% Normocin (InvivoGen) for 24 hrs. Twenty microliters of the supernatant from each well was incubated with Quanti-blue substrate solution (InvivoGen) at 37° C. for 1 hour and absorbance was read at 650 nm using a Synergy plate reader (Biotek, Winooski, Vt.).

[1] = system: human monocyte-derived dendritic cells (MoDC); experiment: Human MoDC immunostaining and flow cytometric analysis (maturation, DC phenotype); type: cell-based
Description: (§1) 1. Dendritic cells were generated from peripheral blood monocytes as described (Brossart P, et al. Blood. 1998; 92: 4238-4247). In brief, CD14 positive monocytes were from a healthy human peripheral blood mononuclear cells (PBMC) obtained via isolation with Lymphocyte Separation Medium (Mediatech, Inc, Manassas, Va.) and after purification with CD14 microbeads from Miltenyi Biotec Inc (Aubun, Calif.). The CD14 positive monocytes (>95% CD14) were cultured into immature monocyte-derived dendritic cells (MoDC) by further 6 day culture with GM-CSF (100 ng/ml) and IL-4 (100 ng/ml)(R&D, MN). 2. 0.1 million of MoDC were plated into 96-well plate and stimulated for 48 hours with 5 different concentration of following TLRs: 412, 420, 421, 414 and 415 at concentration of 0, 0.325, 1.3, 5.2 and 20.8 nmol/ml in triplicate. In other experiments (FIGS. 34 and 35), fresh PBMC (not DC) were used as the responder cells to the indicated compounds and cytokines levels were measured by bead array according to the manufacture's protocol (BD biosciences).
48 hours after stimulation, the cells were stained with anti-HLA-DR, CD11c, CD-86, CD80, CD83, CD8a, CD123 and relevant isotype control (eBioscience, San Diego, Calif.). The cells were loaded on FACS-canto II and analyzed with FACSDiva and Flowjo

[2] = system: human monocyte-derived dendritic cells (MoDC); experiment: Human MoDC inflammatory cytokines by cytometric bead assay; type: cell-based
Description: as §1
The supernatant were harvested 48 hours after stimulation with TLRs. Inflammatory cytokines level was identified with CBA, following the producer's instruction (BD, San Jose, Calif.)

mouse splenocytes = experiment: Inflammatory cytokine detection in splenocytes (CBA); type: cell-based, C57BL/6j mice
Description: Bone marrow cells were harvested from femurs and tibias of C57BL/6j. After red blood cells were removed with ammonium-chloride-potassium buffer, the bone marrow cells were cultured with complete RPMI-1640 medium and 2 ng/ml of granulocyte macrophage colony-stimulating factor (GM-CFS) at 5% CO2 and 37° C. for 6 days. Medium was changed twice during 6 days culture. Single cell suspension of splenocytes was prepared in the same way as one in IL-6 detection assay. BMDC or splenocytes were stimulated in triplicate with Imiquimod-derived new TLR ligand compounds, 412, 420, 421, 422, IMQ (414) and Resquimod (415) at various concentration of 20.8 nmol/ml, 5.2 nmol/ml, 1.3 nmol/ml, 0.325 nmol/ml and 0 nmol/ml. 48 hours after stimulation, the supernatants were harvested and frozen at −80° C. until detection. A cytometric bead array (CBA, BD Bioscience) was performed on inflammatory cytokines following the manufacture's instruction. 500 events were collected. Analysis of all samples was performed on FACScanto-II machine with software and further analyzed with Flowjo. Standard curves and negative control (PBS) were included for each cytokine to calculate the cytokine concentration in the samples.

SMILES: CCCCc1nc2c(N)nc3cc(C(=O)OC)ccc3c2n1CC(C)(C)O [Compound 420, 4-Amino-2-butyl-1-(2-hydroxy-2-methylpropyl)-7-methoxycarbonyl-1H-imidazo[4,5-c]quinoline]
- EC50 (human TLR7): 1.52 ± 0.07 µM
- differentiation of myeloid DC into CD123+ plasmacytoid DC ([1]; human MoDC (FIG. 4)): did not
- MoDC maturation (raising CD86 co-stimulator level and CD83) ([1]; human MoDC, 48 hours after stimulation): same efficiency as Resiquimod and significantly stronger than imiquimod
- IL-1β induction / secretion ([2]; human MoDC (FIG. 11)): induction of IL-1β; also recorded: the only drug tested that caused appreciable IL-1b secretion
- production of inflammatory cytokines ([2]; human MoDC, supernatant 48 hours after stimulation): higher production of “inflammatory cytokines”, compared to imiquimod (but less stronger than Resquimod)
- IL-10 (anti-inflammatory) secretion (mouse splenocytes): less IL-10 (anti-inflammatory) secretion compared to resiquimod
